Laboratory results published in patent publication US20230096766A1, “AMINO ACID HAVING FUNCTIONAL GROUP CAPABLE OF INTERMOLECULAR HYDROGEN BONDING, PEPTIDE COMPOUND CONTAINING SAME AND METHOD FOR PRODUCTION THEREOF” (Chugai Seiyaku Kabushiki Kaisha, priority 2018, published 2023).
*1 amine or outer side, *2 acyl side, *3 side chain or, on linkers, in order; H or OH if unused. Where a SMILES comes first, the peptide text is derived from it. Bridges are numbered along the chain shown (N, C = ends). [ ]: non-standard residue; d: D form. The star is where a group is joined. ξ: configuration not given here. NMeHph(3-OMe-4-CONHMe) = CNC(=O)c1ccc(CC[C@H](NC)C(=O)O)cc1OC; hPhe(3-OMe,4-CONHMe) = CNC(=O)c1ccc(CC[C@H](N)C(=O)O)cc1OC; X5 = O=C([C@H](CCC[C@@H]1CC(F)(F)CN1)N[*:1])[*:2]; CH2(1,2,4-oxadiazolon-3-yl) = O=c1[nH]c(C*)no1; Phe(4-COOH) = N[C@@H](Cc1ccc(C(=O)O)cc1)C(=O)O; NMePhe(3-Cl) = CN[C@@H](Cc1cccc(Cl)c1)C(=O)O; X12 = O=C([C@H](CCCC(O)C(F)(F)F)N[*:1])[*:2]; Pro(4,4-F2)ψ(CH2) = FC1(F)CN[C@H](C*)C1; X9 = O=C([C@@H](CN[*:1])COCCO)[*:2]; Propyl(2,2-Me2,3-OH) = CC(C)(CO)C*; NMeF = CN[C@@H](Cc1ccccc1)C(=O)O; NMeGABA = CN(CCCC(=O)[*:2])[*:1]; NMeI = CC[C@H](C)[C@H](NC)C(=O)O; CH2CH(OH)CF3 = OC(C*)C(F)(F)F; NMeL = CN[C@@H](CC(C)C)C(=O)O; dNMeL = CN[C@H](CC(C)C)C(=O)O; NMeAbu = CC[C@H](NC)C(=O)O; NMeA = CN[C@@H](C)C(=O)O; Piperidide = C1CCN(*)CC1; NBuGly = CCCCNCC(=O)O; NPrGly = CCCNCC(=O)O; ξNMeA = CNC(C)C(=O)O; N(OH)Me = CN(O)*; Sar = CNCC(=O)O; tBu = CC(C)(C)*

experiment: Membrane permeability test of cyclic peptides (Caco-2, modified/improved method of WO 2018/124162); conditions: human, Caco-2, Caco-2 (cm/sec), membrane permeability of cyclic peptides, Caco-2

SMILES | Papp [×10⁻⁶ cm/s]
CNC(=O)c1ccc(CC[C@H]2C(=O)N[C@@H](CC(C)C)C(=O)N(C)[C@@H](CC(C)C)C(=O)N[C@@H]([C@@H](C)O)C(=O)N(C)CC(=O)N(C)[C@@H](CC(C)C)C(=O)N[C@@H](CC(C)C)C(=O)N(C)[C@@H](Cc3ccccc3)C(=O)N(C)[C@@H](CC(C)C)C(=O)N[C@H](C(=O)N3CCCCC3)CC(=O)N[C@H](C(C)C)C(=O)N2C)cc1OC [AP224] ([dV][NMeHph(3-OMe-4-CONHMe)]L[NMeL]T[Sar][NMeL]L[NMeF][NMeL]D-Piperidide; lactam N-11) | 1.1
CCCN1CC(=O)N(C)[C@@H](CC(C)C)C(=O)N[C@H](C(=O)N2CCCCC2)CC(=O)N(C)[C@@H](CC(C)C)C(=O)N[C@@H](Cc2ccccc2)C(=O)N(C)[C@@H](CC(C)C)C(=O)N(C)[C@@H](CC(C)C)C(=O)NC[C@@H](COCCO)C(=O)N(C)[C@@H](Cc2ccccc2)C(=O)N(C)[C@@H](CC(C)C)C(=O)N[C@@H]([C@@H](C)O)C1=O [AP132] ([NMeL]F[NMeL][NMeL][X9][NMeF][NMeL]T[NPrGly][NMeL]D-Piperidide; lactam N-11) | 1.3
CC[C@H](C)[C@H]1C(=O)N[C@@H]([C@@H](C)O)C(=O)N(C)CC(=O)N(C)[C@@H](CC)C(=O)N[C@H](C(=O)N2CCCCC2)CC(=O)N(C)[C@@H](CC(C)C)C(=O)N[C@@H](Cc2ccc(C(=O)N(C)O)cc2)C(=O)N(C)[C@@H](CC(C)C)C(=O)N(C)[C@@H](Cc2ccccc2)C(=O)N[C@@H](CC(C)C)C(=O)N(C)[C@@H](CC(C)C)C(=O)N1C [AP252] ([NMeL][Phe(4-COOH)](N(OH)Me)[NMeL][NMeF]L[NMeL][NMeI]T[Sar][NMeAbu]D-Piperidide; lactam N-11) | 0.13
CC(C)C[C@@H]1NC(=O)[C@H](Cc2ccccc2)N(C)C(=O)[C@H](Cc2ccccc2)N(C)C(=O)[C@H](COCC(C)(C)CO)NC(=O)[C@H](CC(C)C)N(C)C(=O)CCCN(C)C(=O)C[C@@H](C(=O)N2CCCCC2)NC(=O)[C@H](CC(C)C)N(C)C(=O)[C@H](CC(C)C)N(C)C(=O)[C@H]([C@@H](C)O)NC(=O)[C@H](CC(C)C)N(C)C1=O [AP119] ([NMeGABA][NMeL]S(Propyl(2,2-Me2,3-OH))[NMeF][NMeF]L[NMeL]T[NMeL][NMeL]D-Piperidide; lactam N-11) | 0.34
CCCCN1CC(=O)N(C)[C@@H](Cc2cccc(Cl)c2)C(=O)N(C)[C@@H](CC(C)C)C(=O)N[C@@H](COCc2noc(=O)[nH]2)C(=O)N(C)[C@@H](CC(C)C)C(=O)N[C@H](C(=O)N2CCCCC2)CC(=O)N(C)CC(=O)N(C)[C@@H](CC(C)C)C(=O)N[C@@H]([C@@H](C)CC)C(=O)N(C)[C@@H](CC(C)C)C(=O)N[C@@H]([C@@H](C)O)C1=O [AP50] ([Sar][NMeL]I[NMeL]T[NBuGly][NMePhe(3-Cl)][NMeL]S(CH2(1,2,4-oxadiazolon-3-yl))[NMeL]D-Piperidide; lactam N-11) | 0.11

same assay, conditions: human, Caco-2, Caco-2 (cm/sec), membrane permeability, Caco-2

SMILES | Papp [×10⁻⁶ cm/s]
CC[C@H](C)[C@H]1C(=O)N[C@@H](CCc2ccc(C(=O)NC)c(OC)c2)C(=O)N[C@H](C(=O)N2CCCCC2)CC(=O)N(C)[C@H](CC(C)C)C(=O)N[C@@H](COC(C)(C)C)C(=O)N(C)[C@@H](CC(C)C)C(=O)N[C@@H]([C@@H](C)O)C(=O)N(C)[C@@H](Cc2ccccc2)C(=O)N(C)[C@@H](CC(C)C)C(=O)NCC(=O)N1C [AP264] ([dNMeL]S(tBu)[NMeL]T[NMeF][NMeL]G[NMeI][hPhe(3-OMe,4-CONHMe)]D-Piperidide; lactam N-10) | 0.17

same assay, conditions: human, Caco-2, Caco-2 (membrane permeability), Table 6, cyclic peptides containing Ser(1-CF3-EtOH) (C) or Hnl(7-F3-6-OH) (D)

SMILES | Papp [×10⁻⁶ cm/s]
CC(C)C[C@H]1C(=O)N[C@@H](C(C)C)C(=O)N(C)[C@@H](Cc2ccccc2)C(=O)N(C)[C@@H](Cc2ccccc2)C(=O)N[C@@H](COC(C)(C)C)C(=O)N(C)[C@@H](CC(C)C)C(=O)N[C@@H](CCCC(O)C(F)(F)F)C(=O)N(C)[C@@H](CC(C)C)C(=O)N(C)[C@@H](CC(C)C)C(=O)N[C@H](C(=O)N2CCCCC2)CC(=O)N(C)CCCC(=O)N1C (stereo partly drawn) [Compound D12] ([NMeGABA][NMeL]V[NMeF][NMeF]S(tBu)[NMeL][X12][NMeL][NMeL]D-Piperidide; lactam N-11) | 0.13
CC[C@H](C)[C@@H]1NC(=O)[C@H](CC(C)C)N(C)C(=O)[C@H](COC(C)(C)C)NC(=O)[C@H](Cc2ccccc2)N(C)C(=O)[C@H](Cc2ccccc2)N(C)C(=O)[C@H](COCC(O)C(F)(F)F)NC(=O)[C@H](CC)N(C)C(=O)CCCN(C)C(=O)C[C@@H](C(=O)N2CCCCC2)NC(=O)[C@H](CC(C)C)N(C)C(=O)[C@H](CC(C)C)N(C)C1=O (stereo partly drawn) [Compound C13] ([NMeGABA][NMeAbu]S(CH2CH(OH)CF3)[NMeF][NMeF]S(tBu)[NMeL]I[NMeL][NMeL]D-Piperidide; lactam N-11) | 0.26

same assay, conditions: human, Caco-2, Caco-2 (membrane permeability), Table 10, cyclic peptides containing Ser(S-4-F2-Pyrro-Me) (G) or Nva(2-R-4-F2-Pyrro) (H)

SMILES | Papp [×10⁻⁶ cm/s]
CCCCN1CC(=O)N(C)[C@@H](CC(C)C)C(=O)N[C@H](C(=O)N2CCCCC2)CC(=O)N(C)[C@@H](C)C(=O)N[C@@H](CCC[C@@H]2CC(F)(F)CN2)C(=O)N(C)[C@@H](CC(C)C)C(=O)N(C)[C@@H](C)C(=O)N[C@@H](C(C)C)C(=O)N(C)[C@@H](Cc2ccccc2)C(=O)N(C)[C@@H](CC(C)C)C(=O)N[C@@H]([C@@H](C)O)C1=O [Compound H05] ([NMeA][X5][NMeL][NMeA]V[NMeF][NMeL]T[NBuGly][NMeL]D-Piperidide; lactam N-11) | 1.2
CCCCN1CC(=O)N(C)[C@@H](Cc2ccccc2)C(=O)N(C)[C@@H](CC(C)C)C(=O)N[C@@H](CC(C)C)C(=O)N(C)[C@@H](CC(C)C)C(=O)N[C@H](C(=O)N2CCCCC2)CC(=O)N(C)CC(=O)N(C)[C@@H](CC)C(=O)N[C@@H](C(C)C)C(=O)N(C)[C@@H](CC)C(=O)N[C@@H](COC[C@@H]2CC(F)(F)CN2)C1=O [Compound G11] ([Sar][NMeAbu]V[NMeAbu]S(Pro(4,4-F2)ψ(CH2))[NBuGly][NMeF][NMeL]L[NMeL]D-Piperidide; lactam N-11) | 1.5
CCCCN1CC(=O)N(C)[C@@H](Cc2ccccc2)C(=O)N(C)[C@@H](CC(C)C)C(=O)N[C@@H](C(C)C)C(=O)N(C)[C@@H](CC(C)C)C(=O)N[C@H](C(=O)N2CCCCC2)CC(=O)N(C)CC(=O)N(C)[C@@H](CC(C)C)C(=O)N[C@@H](COC[C@@H]2CC(F)(F)CN2)C(=O)N(C)[C@@H](CC(C)C)C(=O)N[C@@H]([C@@H](C)O)C1=O [Compound G06] ([Sar][NMeL]S(Pro(4,4-F2)ψ(CH2))[NMeL]T[NBuGly][NMeF][NMeL]V[NMeL]D-Piperidide; lactam N-11) | 1.8
CCCCN1CC(=O)N(C)[C@@H](CC(C)C)C(=O)N[C@@H](COC(C)(C)C)C(=O)N(C)[C@@H](Cc2ccccc2)C(=O)N(C)[C@@H](C)C(=O)N[C@H](C(=O)N2CCCCC2)CC(=O)N[C@H](C)C(=O)N(C)[C@@H](CC)C(=O)N[C@@H](C(C)C)C(=O)N(C)[C@@H](CC(C)C)C(=O)N[C@@H](CCC[C@@H]2CC(F)(F)CN2)C1=O [Compound H08] ([dA][NMeAbu]V[NMeL][X5][NBuGly][NMeL]S(tBu)[NMeF][NMeA]D-Piperidide; lactam N-11) | 0.92
CCCCN1CC(=O)N(C)[C@@H](CC(C)C)C(=O)N[C@H](C(=O)N2CCCCC2)CC(=O)N(C)C(C)C(=O)N[C@@H](COC[C@@H]2CC(F)(F)CN2)C(=O)N(C)[C@@H](CC(C)C)C(=O)N(C)[C@@H](CC)C(=O)N[C@@H](C(C)C)C(=O)N(C)[C@@H](Cc2ccccc2)C(=O)N(C)[C@@H](CC(C)C)C(=O)N[C@@H]([C@@H](C)O)C1=O (stereo partly drawn) [Compound G05] ([ξNMeA]S(Pro(4,4-F2)ψ(CH2))[NMeL][NMeAbu]V[NMeF][NMeL]T[NBuGly][NMeL]D-Piperidide; lactam N-11) | 3.2
CCCCN1CC(=O)N(C)[C@@H](C)C(=O)N[C@@H](CCC[C@@H]2CC(F)(F)CN2)C(=O)N(C)[C@@H](Cc2ccccc2)C(=O)N(C)[C@@H](CC)C(=O)N[C@H](C(=O)N2CCCCC2)CC(=O)N[C@H](CC(C)C)C(=O)N(C)[C@@H](CC(C)C)C(=O)N[C@@H](C(C)C)C(=O)N(C)[C@@H](CC(C)C)C(=O)N[C@@H]([C@@H](C)O)C1=O [Compound H02] ([dL][NMeL]V[NMeL]T[NBuGly][NMeA][X5][NMeF][NMeAbu]D-Piperidide; lactam N-11) | 0.14
CC(C)C[C@H]1C(=O)N[C@@H](C(C)C)C(=O)N(C)[C@@H](Cc2ccccc2)C(=O)N(C)[C@@H](CC(C)C)C(=O)N[C@@H](CCC[C@@H]2CC(F)(F)CN2)C(=O)N(C)[C@@H](CC(C)C)C(=O)N[C@@H]([C@@H](C)O)C(=O)N(C)[C@@H](CC(C)C)C(=O)N(C)[C@@H](CC(C)C)C(=O)N[C@H](C(=O)N2CCCCC2)CC(=O)N(C)CCCC(=O)N1C [Compound H03] ([NMeGABA][NMeL]V[NMeF][NMeL][X5][NMeL]T[NMeL][NMeL]D-Piperidide; lactam N-11) | < 0.18
CCCCN1CC(=O)N(C)[C@@H](Cc2ccccc2)C(=O)N(C)[C@@H](CC(C)C)C(=O)N[C@@H](CC(C)C)C(=O)N(C)[C@@H](CC(C)C)C(=O)N[C@H](C(=O)N2CCCCC2)CC(=O)N(C)CC(=O)N(C)[C@@H](C)C(=O)N[C@@H](C(C)C)C(=O)N(C)[C@@H](CC)C(=O)N[C@@H](CCC[C@@H]2CC(F)(F)CN2)C1=O [Compound H11] ([Sar][NMeA]V[NMeAbu][X5][NBuGly][NMeF][NMeL]L[NMeL]D-Piperidide; lactam N-11) | 2
CCCCN1CC(=O)N(C)[C@@H](CC(C)C)C(=O)N[C@H](C(=O)N2CCCCC2)CC(=O)N(C)[C@@H](CC)C(=O)N[C@@H](CC(C)C)C(=O)N(C)[C@@H](CC(C)C)C(=O)N(C)[C@@H](Cc2ccccc2)C(=O)N[C@@H](CCC[C@@H]2CC(F)(F)CN2)C(=O)N(C)[C@@H](C)C(=O)N(C)[C@@H](CC(C)C)C(=O)N[C@@H]([C@@H](C)O)C1=O [Compound H04] ([NMeAbu]L[NMeL][NMeF][X5][NMeA][NMeL]T[NBuGly][NMeL]D-Piperidide; lactam N-11) | 0.93
CCCCN1CC(=O)N(C)[C@@H](CC(C)C)C(=O)N[C@@H](COC[C@@H]2CC(F)(F)CN2)C(=O)N(C)[C@@H](CC(C)C)C(=O)N(C)[C@@H](CC(C)C)C(=O)N[C@H](C(=O)N2CCCCC2)CC(=O)N[C@H](C(C)C)C(=O)N(C)[C@@H](Cc2ccccc2)C(=O)N[C@@H](CC(C)C)C(=O)N(C)[C@@H](CC)C(=O)N[C@@H]([C@@H](C)O)C1=O [Compound G01] ([dV][NMeF]L[NMeAbu]T[NBuGly][NMeL]S(Pro(4,4-F2)ψ(CH2))[NMeL][NMeL]D-Piperidide; lactam N-11) | 0.53
